Source: US5736517A, “Treatment of cancer with peptides” (Biomeasure, Inc., priority 1993, dated 1998)
Where a SMILES comes first, the peptide text is derived from it. [ ]: non-standard residue; d: D form. The star is where a group is joined. X1 = CC(C)C[C@@H](CN[C@@H](CC(C)C)C(N)=O)N*; pGlu = O=C1CC[C@@H](C(=O)O)N1

Key:
[1] = target: T1, bombesin receptors of mouse colon cancer (MC-26) cells (Mus musculus, UniProt P21729); experiment: 125I-GRP binding to MC-26 tumor membranes; conditions: 20 pM 125I-GRP
T1 construct: endogenous in cells; host or cells: MC-26 mouse colon carcinoma (tumour membranes)
Experimental: The bombesin analog BIM-26147 was tested for the ability to inhibit growth of the mouse colon tumor MC-26.
(§1) For both FIGS. 1 and 2, aliquots of tumor membranes (150 μg protein) were incubated with 20 pM of ^125 I-GRP in the presence of increasing concentrations of peptides, and the displacement of specifically bound ^125 I-GRP to MC-26 tumor membranes by increasing concentrations of peptides is presented as a percent of maximum specific binding of ^125 I-GRP. Each data point is the mean of two observations within an experiment, and represents two experiments. Table 1 presents the IC50 for ^125 I-GRP binding to mouse colon cancer (MC-26) cells and normal colon mucosal cells in the presence of bombesin receptor antagonists. The data in Table 1 was calculated from FIGS. 1 and 2. The fold difference is relative to bombesin (BBS) values.

[2] = target: T2, bombesin receptors of normal mouse colon mucosal membranes (Mus musculus, UniProt P21729); experiment: 125I-GRP binding to normal mouse colon mucosal membranes; conditions: 20 pM 125I-GRP
T2 construct: from tissue; host or cells: normal mouse colon mucosa (membranes)
Experimental: as §1

CX-5 human colon tumor = experiment: CX-5 human colon tumor, 11-day subrenal capsule assay (SRCA); type: in vivo; conditions: tumor-bearing athymic nude mice, both CX-5 tests (Tables 2 and 3)
Text: The human colon tumor used for testing was the CX-5 tumor, which was surgically removed from a human and carried as an implant in athymic nude mice. The patient had been untreated prior to surgical removal of the tissue specimen. […] CX-5 was a moderately well-differentiated, mucin secreting adenocarcinoma. The tumor is arranged in acini lined by one or more layers of lining cells which have round to oval vesicular nuclei containing prominent nucleoli. There are frequent mitoses, and the cells have eosinophilic cytoplasm. The acini contain abundant amounts of mucin.
We briefly describe subrenal capsule assay as follows. Tumors, 6-15 mm in diameter, were removed from the athymic mice and immediately placed in RPMI medium (Gibco, Grand Island, N.Y.) at room temperature. In the case of the larger tumors (over 10 mm in diameter), where the central parts frequently contained necrotic tissue, viable tissue was dissected out and placed in a separate Petri dish. The tissue pieces, while immersed in the medium, were cut with scalpels into cubes of approximately 1 mm.
Nude mice were anesthetized by i.p. injection of chloral hydrate (0.35-0.45 ml of a 0.22M solution). A shallow incision was made in the left flank and the kidney was exteriorized. […] Immediately after implantation,the tumor size was measured as described below. […]

T1 sequence (P21729 whole entry): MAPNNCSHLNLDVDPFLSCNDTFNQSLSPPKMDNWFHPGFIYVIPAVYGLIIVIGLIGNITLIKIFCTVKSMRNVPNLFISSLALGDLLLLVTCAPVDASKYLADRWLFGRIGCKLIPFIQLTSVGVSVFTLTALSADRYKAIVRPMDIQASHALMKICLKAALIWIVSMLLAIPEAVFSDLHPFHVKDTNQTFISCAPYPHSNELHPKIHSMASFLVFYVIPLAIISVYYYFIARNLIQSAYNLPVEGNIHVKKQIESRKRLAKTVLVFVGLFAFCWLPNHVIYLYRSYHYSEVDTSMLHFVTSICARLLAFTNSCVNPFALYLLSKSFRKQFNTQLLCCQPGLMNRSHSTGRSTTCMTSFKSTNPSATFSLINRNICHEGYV
T2 sequence (P21729 whole entry): as above

CC(C)C[C@@H](CN[C@@H](CC(C)C)C(N)=O)NC(=O)[C@H](Cc1cnc[nH]1)NC(=O)CNC(=O)[C@@H](NC(=O)[C@H](C)NC(=O)[C@H](Cc1c[nH]c2ccccc12)NC(=O)[C@H](CCC(N)=O)NC(=O)[C@H](CC(N)=O)NC(=O)CNC(=O)[C@H](CC(C)C)NC(=O)[C@H](CCCN=C(N)N)NC(=O)[C@H](CCC(N)=O)NC(=O)[C@@H]1CCC(=O)N1)C(C)C [Leu^13 --.psi.(CH2,NH)--Leu^14 --BBS, Leu^13 .psi.[CH2 NH]Leu^14 bombesin] ([pGlu]QRLGNQWAVGH-X1)
IC50 [1]: 80 nM | IC50 [2]: 15 nM

CC(C)C[C@@H](CN[C@@H](Cc1ccccc1)C(N)=O)NC(=O)[C@H](Cc1c[nH]cn1)NC(=O)CNC(=O)[C@@H](NC(=O)[C@H](C)NC(=O)[C@H](Cc1c[nH]c2ccccc12)NC(=O)[C@H](CCC(N)=O)NC(=O)[C@H](N)Cc1ccc(Cl)cc1)C(C)C [BIM-26159, D-Cpa-Gln-Trp-Ala-Val-Gly-His-Leu.psi.[CH2 NH]Phe-NH2]
effect on body weight (CX-5 human colon tumor): no measurable effect on body weight

CCCNC(=O)[C@H](CC(C)C)NC(=O)[C@H](Cc1cnc[nH]1)NC(=O)CNC(=O)[C@@H](NC(=O)[C@H](C)NC(=O)[C@H](Cc1c[nH]c2ccccc12)NC(=O)[C@H](CCC(N)=O)NC(=O)[C@H](N)Cc1ccccc1)C(C)C [BIM-26147, D-Phe-Gln-Trp-Ala-Val-Gly-His-Leu-propylamide]
IC50 [1]: 4.5 nM | IC50 [2]: 1.6 nM
